Like-named read-outs stand apart in the source and are kept apart here.

The IC50 is the point on the concentration scale where inhibition reaches its midpoint.

For series [1], the system named is engineered CD8+ and CD4+ T cells. Description: T cell expansion of anti-CD19 CAR-transduced CD4+ and CD8+ T cells incubated with mTOR kinase inhibitor. In kind it is cell-based. As for the experimental part: Separate compositions of CD4+ and CD8+ cells were isolated from human leukapheresis samples by immunoaffinity-based enrichment and cryofrozen. The CD4+ and CD8+ cells of the compositions were subsequently thawed and activated by separately culturing the cells under stimulating conditions in the presence of anti-CD3/anti-CD28 magnetic beads and recombinant IL-2, IL-7 and/or IL-15 for approximately 20 hours. Cells were then transduced with a viral vector encoding an anti-CD19 chimeric antigen receptor (CAR). After transduction, the CD4+ and CD8+ cells were separately incubated in the presence of an mTOR kinase inhibitor, either Compound 155, Compound 63, or Compound 246, at various concentrations. For controls, cells were incubated with media only, DMSO vehicle, or with 200 nM PI-103. Incubation was carried out at 37° C. for approximately 8 days post-thaw with one media change, at which point the compounds were re-added to the culture media at the same concentration.
The percent of CD8+ and CD4+ T cells at the end of the process as compared to the amount of cells seeded for culture following the transduction is shown in FIG. 2. The cutoff for selecting a tolerated dose was set at 70% of the mean values of the media and DMSO controls.

Another series concerns Ribo-S6 phosphorylation. The series can be described thus: Inhibition of ribosomal protein S6 phosphorylation in stimulated primary human T cells (flow cytometry). The class given is cell-based. The procedure:
The dose effect of exemplary mTOR kinase inhibitors in primary human T cells was assessed by monitoring inhibition of ribosomal protein S6.
CD4+ and CD8+ T cells were isolated by immunoaffinity-based enrichment from leukapheresis samples from human donor subjects. Isolated CD4+ and CD8+ T cells were mixed 1:1 and stimulated with anti-CD3/anti-CD28 magnetic beads in the presence of increasing concentrations of an mTOR kinase inhibitor, PI-103, Compound 155, Compound 63, or Compound 246. The T cell cultures were incubated overnight (approximately 16 hr) at 37° C. Following incubation in the presence of PI-103, Compound 155, Compound 63, or Compound 246, T cells were assessed for intracellular S6 phosphorylation and co-stained for surface expression of CD4 or CD8, by flow cytometry.

Where [2] appears, read: Homo sapiens, T-cell, CD8+ T cells, read-out: IC50 for inhibition of Ribo-S6 phosphorylation, CD8.
The mark [3] stands for this setting: Homo sapiens, CD4+ T cells, read-out: IC50 for inhibition of Ribo-S6 phosphorylation, CD4.
Where [4] appears, read: T-cell, primary human CD4+/CD8+ T cells mixed 1:1, anti-CD3/anti-CD28 beads, approximately 16 hr, read-out: IC50 for the inhibition of S6 phosphorylation in the T cells.

For `O=c1[nH]c2ncc(-c3ccc(-c4nc[nH]n4)cc3)nc2n1CCC1CCOCC1` [Compound 155, 6-(4-(2H-1,2,4-Triazol-3-yl)phenyl)-1-(2-(tetrahydro-2H-pyran-4-yl)ethyl)-1H-imidazo [4,5-b]pyrazine-2(3H)-one], in series [1] (human), the “highest tolerated dose resulting in similar CD8 and CD4 T cell expansion as vehicle control” value is given as 100 nM. The IC50 with Ribo-S6 phosphorylation (setting [2]) is 127 nM; with Ribo-S6 phosphorylation (setting [3]), 121 nM; in the series with Ribo-S6 phosphorylation (setting [4]), roughly 100 nM.

Take `CO[C@H]1CC[C@H](N2C(=O)CNc3ncc(-c4ccc(C(C)(C)O)nc4)nc32)CC1` [Compound 246, 7-(6-(2-hydroxypropan-2-yl)pyridin-3-yl)-1-((1r,4r)-4-methoxycyclohexyl)-3,4-dihydropyrazino[2,3-b]pyrazin-2(1H)-one]: the “highest tolerated dose resulting in similar CD8 and CD4 T cell expansion as vehicle control” value in series [1] (cutoff 70% of mean of media and DMSO controls, approximately 8 days post-thaw) is 100 nM. Also, the values for the IC50 with Ribo-S6 phosphorylation (setting [2]), in the series on Ribo-S6 phosphorylation (setting [3]) and with Ribo-S6 phosphorylation (setting [4]) were 502 nM, 475 nM and roughly 500 nM, respectively.
